The values that follow come from patent publication US6569836B2, “6-O-alkyl-2-nor-2-substituted ketolide derivatives” (Abbott Laboratories, priority 1999, dated 2003).

Common to all, as to assay: In vitro antibacterial activity, agar dilution MIC
The test system of experiment [1] is Staphylococcus aureus ATCC 6538P. The format is cell-based. The conditions noted are these: code AA, BHI agar, 35-37° C., 20-24 hours, unit assumed. On the procedure: (§1) Each plate was inoculated with 1:100 (or 1:10 for slow-growing strains, such as Micrococcus and Streptococcus) dilutions of up to 32 different microorganisms, using a Steers replicator block. The inoculated plates were incubated at 35-37° C. for 20-24 hours. In addition, a control plate using BHI agar with no test compound was prepared and incubated at the beginning and end of each test. A plate containing erythromycin A was also prepared to provide test-to-test comparability. […] After incubation, each plate was visually inspected. The minimum inhibitory concentration (MIC) was defined as the lowest concentration of drug yielding no growth, a slight haze, or sparsely isolated colonies on the inoculum spot as compared to the growth control.

Experiment [2] has as its system Staphylococcus aureus 1775. It is filed as cell-based. The conditions noted are these: code GG, BHI agar, 35-37° C., 20-24 hours, unit assumed. How it is done: as §1
Experiment [3] deals with Staphylococcus epidermidis 3519. The format is cell-based. The conditions noted are these: code HH, BHI agar, 35-37° C., 20-24 hours, unit assumed. On the procedure:
as §1

Experiment [4] concerns Streptococcus Pneumonia ATCC 6303. The format is cell-based. The conditions noted are these: code XX, BHI agar, 35-37° C., 20-24 hours, unit assumed. On the procedure: as §1
For experiment [5], the system named is Streptococcus Pneumonia 5649. It is filed as cell-based. The settings on record: code ZA, BHI agar, 35-37° C., 20-24 hours, unit assumed. On the procedure:
as §1

In experiment [6] the test system is Streptococcus pyogenes 930. It is filed as cell-based. The conditions noted are these: code MM, BHI agar, 35-37° C., 20-24 hours, unit assumed. On the procedure:
as §1

The test system of experiment [7] is Streptococcus pyogenes PIU 2548. It is filed as cell-based. The settings on record: code NN, BHI agar, 35-37° C., 20-24 hours, unit assumed. On the procedure:
as §1

Experiment [8] deals with Streptococcus Pneumonia GYR 1171. The format is cell-based. The conditions noted are these: code YY, BHI agar, 35-37° C., 20-24 hours. How it is done:
as §1

Experiment [9] relates to Staphylococcus aureus NCTC 10649M. The format is cell-based. The conditions noted are these: code EE, BHI agar, 35-37° C., 20-24 hours, unit assumed. On the procedure: as §1
In experiment [10] the test system is Streptococcus agalactiae CMX 508. The format is cell-based. The settings on record: code KK, BHI agar, 35-37° C., 20-24 hours, unit assumed. On the procedure: as §1
Experiment [11] has as its system Streptococcus pyogenes EES61. The format is cell-based. The settings on record: code LL, BHI agar, 35-37° C., 20-24 hours, unit assumed. How it is done: as §1
The subject of experiment [12] is Staphylococcus aureus A-5278. The format is cell-based. The settings on record: code CC, BHI agar, 35-37° C., 20-24 hours, unit assumed. How it is done: as §1
Experiment [13] concerns Nocardia Asteroides ATCC 99700. It is filed as cell-based. The settings on record: code VV, BHI agar, 35-37° C., 20-24 hours, unit assumed. On the procedure:
as §1

The next experiment relates to Candida albicans CCH 442. The format is cell-based. The settings on record: code TT, BHI agar, 35-37° C., 20-24 hours, unit assumed. On the procedure: as §1
Experiment [14] concerns Streptococcus bovis A-5169. The format is cell-based. The settings on record: code JJ, BHI agar, 35-37° C., 20-24 hours, unit assumed. On the procedure:
as §1

In experiment [15] the test system is Mycobacterium smegmatis ATCC 114. The format is cell-based. The conditions noted are these: code UU, BHI agar, 35-37° C., 20-24 hours, unit assumed. On the procedure:
as §1

In experiment [16] the test system is Staphylococcus aureus A-5177. The format is cell-based. The settings on record: code BB, BHI agar, 35-37° C., 20-24 hours, unit assumed. How it is done: as §1
The test system of another experiment is Escherichiacoli SS. The format is cell-based, Escherichia coli. The conditions noted are these: code RR, BHI agar, 35-37° C., 20-24 hours, unit assumed. On the procedure: as §1
The subject of a further experiment is Escherichiacoli JUHL. It is filed as cell-based, Escherichia coli. The conditions noted are these: code QQ, BHI agar, 35-37° C., 20-24 hours, unit assumed. On the procedure:
as §1

Experiment [17] concerns Micrococcusluteus ATCC 4698. The format is cell-based, Micrococcus luteus. The conditions noted are these: code PP, BHI agar, 35-37° C., 20-24 hours, unit assumed. On the procedure:
as §1

Experiment [18] deals with Haemophilislnfluenzae DILL AMP R. It is filed as cell-based, Haemophilus influenzae. The settings on record: code WW, BHI agar, 35-37° C., 20-24 hours, unit assumed. How it is done:
Representative compounds of the present invention were assayed in vitro for antibacterial activity as follows: twelve petri dishes containing successive aqueous dilutions of the test compound mixed with 10 mL of sterilized Brain Heart Infusion (BHI) agar (Difco 0418-01-5) were prepared. Each plate was inoculated with 1:100 (or 1:10 for slow-growing strains, such as Micrococcus and Streptococcus) dilutions of up to 32 different microorganisms, using a Steers replicator block. The inoculated plates were incubated at 35-37° C. for 20-24 hours. In addition, a control plate using BHI agar with no test compound was prepared and incubated at the beginning and end of each test.
A plate containing erythromycin A was also prepared to provide test-to-test comparability.
After incubation, each plate was visually inspected. The minimum inhibitory concentration (MIC) was defined as the lowest concentration of drug yielding no growth, a slight haze, or sparsely isolated colonies on the inoculum spot as compared to the growth control.

Experiment [19] relates to Streptococcus Pneumonia 5979. The format is cell-based. The conditions noted are these: code ZZ, BHI agar, 35-37° C., 20-24 hours, unit assumed. On the procedure:
as §1, with “test.” for “test. A plate containing erythromycin A was also prepared to provide test-to-test comparability.”

For the substance “Compound of Formula (I), R^p is Hydrogen, Y is Hydrogen, R^1 is —CH2CH(OH)CH(OH)—(3-quinolyl), R^3 is —CH2OH and R^4 is OH [Example 3]”, the Antibacterial Activity (MIC's) was 0.05 µg/mL in experiment [1]; above 100 µg/mL in experiment [2]; 0.05 µg/mL in [3]; 0.008 µg/mL in [4]; 0.25 µg/mL in experiment [5]; 12.5 µg/mL in experiment [6]. Moreover, the Antibacterial Activity (MIC's) was 0.1 µg/mL in [7]; “≦0.004” in experiment [8]; 0.1 µg/mL in [9]; 0.01 µg/mL in experiment [10]; 0.01 µg/mL in experiment [11]; above 100 µg/mL in experiment [12]. For the same substance, the Antibacterial Activity (MIC's) in [13] is 0.05 µg/mL; in the experiment on Candida albicans CCH 442, above 100 µg/mL; in experiment [14], 0.01 µg/mL; in experiment [15] it was 3.1 µg/mL; in [16], 0.05 µg/mL; in the experiment on Escherichiacoli SS, 0.2 µg/mL. For the same substance, the Antibacterial Activity (MIC's) came out at 50 µg/mL in the experiment on Escherichiacoli JUHL, 0.05 µg/mL in [17], 2 µg/mL in [18] and 64 µg/mL in experiment [19].
